Measurements reported in patent publication US7090872B2, “Antioxidant, skin preparation for external use, cosmetic and food” (Nichirei Biosciences Inc., priority 2002, dated 2006).

Assay: Antioxidative activity measurement using linoleic acid (ferric thiocyanate method)
Details: 0.023 mg of vitamin C (amount contained in 0.4 mg of the solid); control = 100%
Description: Next, the antioxidative activity of the obtained extract was measured by antioxidative activity measurement using linoleic acid (ferric thiocyanate method).
Specifically, a mixture of 0.4 mg of the acerola seed extract, 2 ml of 99.5% ethanol, and 2 ml of distilled water was mixed with a reaction liquid composed of 2 ml of 2.5% (w/v) linoleic acid (99.5% ethanol solution) and 4 ml of a 0.05 M phosphate buffer (pH 7.0), and placed in a brown threaded bottle, to thereby prepare 10 ml of a test liquid. On the other hand, test liquids as positive controls were prepared in the same way using α-tocopherol or BHA in place of the acerola seed extract at the same content in the reaction liquid. […] Samples were taken out at intervals, and measured by the following methods. […]
First, to a mixture of 0.1 ml of the sample, 9.7 ml of 75% ethanol, and 0.1 ml of a 30% aqueous solution of ammonium rhodanide, 0.1 ml of 2×10^−2 M ferrous chloride (3.5% hydrochloric acid solution) was added, and exactly 3 minutes later, the absorbance at 500 nm was measured. The same measurement was made with the blanks, and Δabsorbance was taken according to the following formula: Δ absorbance=(absorbance of main sample)−(absorbance of blank). The absorbance increases with oxidation of the sample, and after reaching the maximum, decreases with consumption of the sample to be oxidized. […]

With `O=C1O[C@H]([C@@H](O)CO)C(O)=C1O` [vitamin C] the “degree of oxidation on day 7” value was 115.8%.
